Data reported in patent US7390892B2, “Nucleic acids encoding novel cyclic GMP dependent protein kinases from Elmeria maxima” (Merial Limited, priority 2001, dated 2008).
Converted amounts (≈) assume the structure as drawn. “And” between values parts separate entries of the source, which are not always exact repeats. Identical values can stand only once.

Columns and labels:
[1] = target: Recombinant E. maxima PKG (Eimeria maxima, UniProt Q8MMZ5); assay: PKG catalytic assay, recombinant E. maxima PKG; type: biochemical
Description: T. gondii was selected as a host cell for recombinant expression of functional E. maxima PKG enzyme. An Eimeria maxima cDNA encoding the PKG open reading frame (ORF) was modified prior to subcloning for expression by appending either an N-terminal or C-terminal FLAG epitope for detection purposes via PCR amplification. DNA fragments encoding FLAG-epitope tagged PKGs were then placed in a T. gondii expression vector under the control of a Toxoplasma α-tubulin promoter (Soldati and Boothroyd, 1993, Science 260, 349-352). The vector encodes bacterial chloramphenicol acetyltransferase (CAT) as a selectable marker for transfection.
T. gondii tachyzoites of the RH strain were maintained by serial passage in primary human foreskin fibroblast cultures (HFF). Host cells were grown in Dulbecco's modified Eagle's medium with 10% heat-inactivated newborn bovine serum. […]
Recombinant FLAG-tagged E. maxima PKG was purified from T. gondii lysates by FLAG immuno-affinity chromatography. […] Protein was measured with a micro BCA reagent (Pierce), using a TCA/sodium deoxycholate step (Brown et al, 1989, Analytical Biochemistry 180, 136-139) to remove residual FLAG peptide prior to quantitation. […]
(§1) Kinase activity was detected using a peptide substrate and [γ-^33P]-ATP. […] In both cases filters were washed with 75 mM phosphoric acid, dried and ^33P-labelled phosphopeptide was detected by liquid scintillation counting.

[2] = target: Native E. maxima PKG (Eimeria maxima, UniProt Q8MMZ5); assay: PKG catalytic assay, native E. maxima PKG; type: biochemical
Method: E. maxima unsporulated oocysts were harvested from the ceca of chickens seven days after infection with sporulated oocysts and purified using standard methods (Schmatz et al, 1986, J. Protozoology 33, 109-114). Soluble extracts were prepared by vortexing 2×10^9 E. maxima unsporulated oocysts with an equal volume of buffer (10 mM HEPES pH 7.4, 1 mM sodium orthovanadate, 20% glycerol, 0.1 mg/ml Bacitracin and 0.5% Sigma protease inhibitor cocktail P8340), and an equal volume of […] glass beads for 20 minutes. The resulting homogenate was centrifuged (100,000×g, 1 hour) and the supernatant (S100) collected. Native E. maxima PKG activity in the S100 fraction was affinity purified using an 8-AET-cGMP-agarose matrix as described below. • (iv) Isolation and Characterization of Native PKG from P. falciparum
Kinase activity was detected using a peptide substrate and [γ-^33P]-ATP. An aliquot containing the respective enzyme preparations was combined with a reaction mixture (10 μl) whose composition is as follows: 25 mM HEPES pH 7.4, 10 mM MgCl2, 20 mM beta-glycerophosphate, 5 mM beta-mercaptoethanol, 10 μM cGMP, 1 mg/ml BSA, 400 μM Kemptide, 2 μM [γ-^33P]ATP (0.1 mCi/ml). […] In both cases filters were washed with 75 mM phosphoric acid, dried and ^33P-labelled phosphopeptide was detected by liquid scintillation counting.

[3] = target: T1, Native P. falciparum PKG (Plasmodium falciparum, UniProt Q8I719); assay: PKG catalytic assay, native P. falciparum PKG; type: biochemical
T1 construct: endogenous in cells; host or cells: P. falciparum NF54, schizont/trophozoite-enriched cultures in human erythrocytes; MonoQ then 8-AET-cGMP-agarose
Method: The NF54 strain of P. falciparum was grown in 5% human O+ red blood cells in RPMI 1640 media supplemented with 10% heat-inactivated human serum and 3% hypoxanthine using modifications of standard conditions (Trager and Jensen, 1976, Science 193, 673-675). Media was changed daily and parasites were diluted into fresh erythrocytes to a parasitemia of 0.2-0.5% every 3 to 4 days; final parasitemia ranged from 4 to 10%. Synchronized cultures (Lambros and Vanderberg, 1979, J. Parasitology 65, 418-420) enriched for schizont and trophozoite stages were prepared in a continuous Percoll gradient (Rivadeneira et al, 1983 J. Protozoology 30, 367-370). […]
A linear NaCl gradient was applied (0-500 mM in 3ml @ 100 ul/min) and 100 ul fractions were collected and assayed for PKG enzyme activity. […] The purification of P. falciparum PKG was monitored by Western blot analysis using a commercially available antipeptide antisera directed at a conserved PKG peptide (Calbiochem Cat. No. 539729). • (v) PKG Catalytic Assay
as §1

[4] = tested on: Plasmodium falciparum; assay: PFAIV assay: tritiated hypoxanthine incorporation into parasitized red blood cells; type: cell-based; conditions: Erythrocyte, in vitro cell culture, 48 hours, [3H]-hypoxanthine incorporation, read-out: concentration of compound required to inhibit growth by 50% (IC50)
Method: The PFAIV assay is an in vitro assay designed to identify potential inhibitors of P. falciparum by measuring the incorporation of tritiated hypoxanthine into parasitized red blood cells.
The following method is an adaptation of the method described by Desjardins, R. E. et al, 1979. AAC Vol 16, p710-718:
1. Sixty microliters of a solution of RPMI 1640 media plus gentamycin (1:100 dilution) containing the desired concentration of test compound is added to the wells of a 96-well plate. (For titrations, 120 microliters is added to the top well and the compounds are serially diluted into 60 microliters of media.)
2. Fifty three microliters of parasitized red blood cells is added to the wells. The parasitemia of the culture is approximately 2-3% and the hematocrit is 5%. The red blood cells are diluted in RPMI 1640 media containing 20% human A+ serum and gentamycin.
3. Twelve microliters of RPMI1640 media containing 200 uCi [^3H] - hypoxanthine is added to each well.
4. The plates are incubated at 37° C. for 48 hours under […] (candle jar). After incubation, the plates are frozen overnight (for safety), then thawed and harvested using a manual 96-well harvester onto UNIFILTER GF/B plates.
5. The plates are counted on a Wallac instrument and % inhibition of parasite growth is determined as compared to control wells containing no compound.

[5] = tested on: P. berghei; assay: Parasitemia in mice infected with P. berghei; type: in vivo; conditions: Balb C mice, individual mice 1-5
Method: Balb C mice were infected intra-peritoneally with 1×10^6 P. berghei parasites in red blood cells. Two hours later twice daily intra-peritoneal treatment began with L-167645 in 10% DMSO. In the experiments described within, five animals were dosed with 75 milligrams compound per kilogram body weight (mpk) and received two treatments for one day. Five additional mice were dosed at 50 mpk and received two treatments daily for five days. Five control mice were dosed with an equivalent volume of 10% DMSO twice daily for 5 days. Parasite burden was measured by counting infected red blood cells as a function of total red blood cells (% parasitemia) and was performed periodically; -parasitemia on day 8 post-infection are tabulated below.

[6] = tested on: E. maxima; assay: Efficacy against E. maxima in infected chickens (oocyst counts); type: in vivo; conditions: 125 ppm in the feed, terminated on day 8
Method: Several studies have been conducted to evaluate the efficacy of […] against E. maxima in infected chickens. For efficacy studies against E. maxima alone, L-167645 was administered in the feed at doses from 25 to 150 ppm starting on day one. Birds were infected with 3.5×10^3 E. maxima sporalated oocysts on day 2 and medicated feed was continuously available at the respective doses for the duration of the study. The experiment was terminated on day 8, intestines were removed and homogenized and compound efficacy was estimated by performing oocyst counts.

[7] = tested on: Mixed-species field isolate of Eimeria DP-924 (E. maxima, E. acervulina, E. mitis); assay: Chicken battery experiment, mixed-species Eimeria field isolate DP-924; type: in vivo; conditions: chickens, field isolate DP-924, 125 ppm in feed
Description: (§2) Chicken battery experiments have also been conducted to evaluate L-167645 efficacy against mixed-species field isolates of Eimeria. The Eimeria cultures were obtained from grower farms in major broiler-producing states. Two of these field isolates, DP-924 and DP-968, contained E. maxima parasites. Each treatment group consisted of one pen of three one-week old White Leghorn chickens. Animals were placed on medicated feed at doses of L-167645 ranging from 25 to 150 ppm for the duration of the study. After 48 hrs, birds were infected by oral gavage with a total of 1×10^5 sporulated oocysts.

[8] = tested on: Mixed-species field isolate of Eimeria DP-968 (E. maxima, E. acervulina, E. mitis, E. tenella); assay: Chicken battery experiment, mixed-species Eimeria field isolate DP-968; type: in vivo; conditions: chickens, field isolate DP-968, 125 ppm in feed
Description: as §2

[9] = tested on: C. parvum; assay: In vitro tissue culture based assay with C. parvum; type: cell-based

`CN1CCC(c2cc(-c3ccncc3)c(-c3ccc(F)cc3)[nH]2)CC1` [L-167645, 4-[2-(4-fluorophenyl)-5-(1-methylpiperidine4-yl)-1H-pyrrol-3-yl]pyridine] was tested, and the IC50 [1] was 4.2 nM, the IC50 [2] was 4.6 nM and the IC50 [3] was 8.53 nM. For the same compound, the IC50 [4] was 2.2 µg/mL (≈ 6.56 µM), the “% parasitemia 8 days post-infection” value ([5]; 50 mpk intra-peritoneal, twice daily for five days, 50 mg/kg) was 0% (2×) and 1% (2×) and 3% and the “% parasitemia 8 days post-infection” value ([5]; 75 mpk intra-peritoneal, two treatments for one day, 75 mg/kg) was 3% and 4% and 1% (2×) and Dead. The “reduction in oocyst counts” value [6] was “greater than 99%”, the “% Reduction in Oocyst Counts” value [7] was 97% and the “Relative % Weight Gain” value [7] was 108%. The “% Reduction in Oocyst Counts” value [8] was 86%, the “Relative % Weight Gain” value [8] was 94% and the “inhibition of parasitic growth” value [9] was “effective in inhibiting parasitic growth”.
